Assay results: patent publication US11331271B2, “Buccal, sublingual and intranasal delivery of fospropofol” (The Johns Hopkins University, priority 2016, dated 2022)

Tested on: healthy male volunteers
Test: Human Study 1: treatment-emergent adverse events (TEAE), safety, Modified OAA/S
Format: in vivo
Protocol: In human study 1, fospropofol disodium was formulated as a sterile aqueous solution at a concentration of 20 mg/mL. Each vial provided contained 20 mL of solution, suitable for intravenous injection. Fospropofol was administered as a single dose of 400 mg orally, directly into the duodenum by gastroscopy or intravenously over 10 min. In human study 2, fospropofol disodium in capsules (200 mg) or matching placebo was administered orally.
The first study was an absolute bioavailability study of fospropofol conducted at a single center (PRA Health Sciences) in Groningen, Netherlands, as a three-way crossover study. The study enrolled 7 healthy male volunteers between 18 and 45 years of age inclusive, with a body mass index between 18 and 28 kg/m^2. Subjects stayed in the clinical unit for three consecutive periods of 3 days each, with a 3-day washout, between periods. For six subjects, the order of the administration routes was as follows—period 1: PO, period 2: ID, and period 3: IV. For one subject the order of the administration routes was the following—period 1: ID, period 2: IV and period 3: PO. In this study a single dose of 400 mg was administered by each route. Blinding and placebo control was impractical due to the requirement of unsedated endoscopic administration of fospropofol into the duodenum. Safety and overall pharmacodynamic effect was evaluated based on adverse events, vital signs, electrocardiogram (ECG), Modified Observer's Assessment of Alertness/Sedation (OAA/S) score, clinical laboratory tests, and physical examination.

Structure (SMILES): CC(C)c1cccc(C(C)C)c1OCOP(=O)(O)O [fospropofol]
- TEAE GASTROINTESTINAL DISORDERS, events (E) (400 mg ID): 1
- TEAE GASTROINTESTINAL DISORDERS, subjects (%) (400 mg ID): 14%
- TEAE GENERAL DISORDERS AND ADMINISTRATION SITE CONDITIONS, events (E) (400 mg ID): 3
- TEAE GENERAL DISORDERS AND ADMINISTRATION SITE CONDITIONS, subjects (%) (400 mg ID): 43%
- TEAE INFECTIONS AND INFESTATIONS, events (E) (400 mg ID): 1
- TEAE INFECTIONS AND INFESTATIONS, subjects (%) (400 mg ID): 14%
- TEAE NERVOUS SYSTEM DISORDERS, events (E) (400 mg ID): 3
- TEAE NERVOUS SYSTEM DISORDERS, subjects (%) (400 mg ID): 43%
- TEAE SKIN AND SUBCUTANEOUS TISSUE DISORDERS, events (E) (400 mg ID): 1
- TEAE SKIN AND SUBCUTANEOUS TISSUE DISORDERS, subjects (%) (400 mg ID): 14%
- TEAE TOTAL, events (E) (400 mg ID): 9
- TEAE TOTAL, subjects (%) (400 mg ID): 86%
- TEAE dizziness, events (E) (400 mg ID): 1
- TEAE dizziness, subjects (%) (400 mg ID): 14%
- TEAE fatigue, events (E) (400 mg ID): 2
- TEAE fatigue, subjects (%) (400 mg ID): 29%
- TEAE flatulence, events (E) (400 mg ID): 1
- TEAE flatulence, subjects (%) (400 mg ID): 14%
- TEAE herpes simplex, events (E) (400 mg ID): 1
- TEAE herpes simplex, subjects (%) (400 mg ID): 14%
- TEAE rash, events (E) (400 mg ID): 1
- TEAE rash, subjects (%) (400 mg ID): 14%
- TEAE somnolence, events (E) (400 mg ID): 2
- TEAE somnolence, subjects (%) (400 mg ID): 29%
- TEAE subrapubic pain, events (E) (400 mg ID): 1
- TEAE subrapubic pain, subjects (%) (400 mg ID): 14%
- subjects with Modified OAA/S score of 4 (400 mg ID): 43%
- subjects with Modified OAA/S score of 4 (n of 7) (400 mg ID): Three
- TEAE BLOOD AND LYMPHATIC SYSTEM DISORDERS, events (E) (400 mg IV): 1
- TEAE BLOOD AND LYMPHATIC SYSTEM DISORDERS, subjects (%) (400 mg IV): 14%
- TEAE EYE DISORDERS, events (E) (400 mg IV): 5
- TEAE EYE DISORDERS, subjects (%) (400 mg IV): 71%
- TEAE GASTROINTESTINAL DISORDERS, events (E) (400 mg IV): 4
- TEAE GASTROINTESTINAL DISORDERS, subjects (%) (400 mg IV): 43%
- TEAE GENERAL DISORDERS AND ADMINISTRATION SITE CONDITIONS, events (E) (400 mg IV): 9
- TEAE GENERAL DISORDERS AND ADMINISTRATION SITE CONDITIONS, subjects (%) (400 mg IV): 57%
- TEAE MUSCULOSKELETAL AND CONNECTIVE TISSUE DISORDERS, events (E) (400 mg IV): 2
- TEAE MUSCULOSKELETAL AND CONNECTIVE TISSUE DISORDERS, subjects (%) (400 mg IV): 29%
- TEAE NERVOUS SYSTEM DISORDERS, events (E) (400 mg IV): 31
- TEAE NERVOUS SYSTEM DISORDERS, subjects (%) (400 mg IV): 100%
- TEAE PSYCHIATRIC DISORDERS, events (E) (400 mg IV): 2
- TEAE PSYCHIATRIC DISORDERS, subjects (%) (400 mg IV): 29%
- TEAE REPRODUCTVE SYSTEM AND BREAST DISORDERS, events (E) (400 mg IV): 1
- TEAE REPRODUCTVE SYSTEM AND BREAST DISORDERS, subjects (%) (400 mg IV): 14%
- TEAE SKIN AND SUBCUTANEOUS TISSUE DISORDERS, events (E) (400 mg IV): 1
- TEAE SKIN AND SUBCUTANEOUS TISSUE DISORDERS, subjects (%) (400 mg IV): 14%
- TEAE TOTAL, events (E) (400 mg IV): 56
- TEAE TOTAL, subjects (%) (400 mg IV): 100%
- TEAE burning sensation, events (E) (400 mg IV): 6
- TEAE burning sensation, subjects (%) (400 mg IV): 43%
- TEAE catheter site pain, events (E) (400 mg IV): 1
- TEAE catheter site pain, subjects (%) (400 mg IV): 14%
- TEAE diplopia, events (E) (400 mg IV): 1
- TEAE diplopia, subjects (%) (400 mg IV): 14%
- TEAE disorientation, events (E) (400 mg IV): 1
- TEAE disorientation, subjects (%) (400 mg IV): 14%
- TEAE dizziness postural, events (E) (400 mg IV): 1
- TEAE dizziness postural, subjects (%) (400 mg IV): 14%
- TEAE dizziness, events (E) (400 mg IV): 3
- TEAE dizziness, subjects (%) (400 mg IV): 43%
- TEAE dry mouth, events (E) (400 mg IV): 1
- TEAE dry mouth, subjects (%) (400 mg IV): 14%
- TEAE dyspepsia, events (E) (400 mg IV): 1
- TEAE dyspepsia, subjects (%) (400 mg IV): 14%
- TEAE ecchymosis, events (E) (400 mg IV): 1
- TEAE ecchymosis, subjects (%) (400 mg IV): 14%
- TEAE euphoric mood, events (E) (400 mg IV): 1
- TEAE euphoric mood, subjects (%) (400 mg IV): 14%
- TEAE fatigue, events (E) (400 mg IV): 2
- TEAE fatigue, subjects (%) (400 mg IV): 29%
- TEAE feeling abnormal, events (E) (400 mg IV): 1
- TEAE feeling abnormal, subjects (%) (400 mg IV): 14%
- TEAE feeling cold, events (E) (400 mg IV): 1
- TEAE feeling cold, subjects (%) (400 mg IV): 14%
- TEAE feeling drunk, events (E) (400 mg IV): 1
- TEAE feeling drunk, subjects (%) (400 mg IV): 14%
- TEAE genital pruritis male, events (E) (400 mg IV): 1
- TEAE genital pruritis male, subjects (%) (400 mg IV): 14%
- TEAE lymph node pain, events (E) (400 mg IV): 1
- TEAE lymph node pain, subjects (%) (400 mg IV): 14%
- TEAE muscle fatigue, events (E) (400 mg IV): 2
- TEAE muscle fatigue, subjects (%) (400 mg IV): 29%
- TEAE nausea, events (E) (400 mg IV): 1
- TEAE nausea, subjects (%) (400 mg IV): 14%
- TEAE paresthesia, events (E) (400 mg IV): 9
- TEAE paresthesia, subjects (%) (400 mg IV): 86%
- TEAE proctalgia, events (E) (400 mg IV): 1
- TEAE proctalgia, subjects (%) (400 mg IV): 14%
- TEAE sluggishness, events (E) (400 mg IV): 3
- TEAE sluggishness, subjects (%) (400 mg IV): 43%
- TEAE somnolence, events (E) (400 mg IV): 5
- TEAE somnolence, subjects (%) (400 mg IV): 71%
- TEAE speech disorder, events (E) (400 mg IV): 6
- TEAE speech disorder, subjects (%) (400 mg IV): 86%
- TEAE tremor, events (E) (400 mg IV): 1
- TEAE tremor, subjects (%) (400 mg IV): 14%
- TEAE visual disturbance, events (E) (400 mg IV): 4
- TEAE visual disturbance, subjects (%) (400 mg IV): 54%
- subjects with Modified OAA/S score of 4 (400 mg IV): 57%
- subjects with Modified OAA/S score of 4 (n of 7) (400 mg IV): 4
- time to resolution of euphoria (400 mg IV, one subject): 34 min
- TEAE GASTROINTESTINAL DISORDERS, events (E) (400 mg PO): 1
- TEAE GASTROINTESTINAL DISORDERS, subjects (%) (400 mg PO): 14%
